# Source: publication PMC5890937 (European journal of medicinal chemistry, 2017)
# Several values for one entry are separate records, joined by “and”; a condition that tells them apart may be missing. Equal values may be shown once.
# Key:
# HDAC6 [1] = target: T1, HDAC6 (Homo sapiens, UniProt Q9UBN7); assay: ELISA-based HDAC activity assay, HDAC6; type: biochemical; conditions: for fold selectivity for HDAC6 and HDAC8 over HDAC1, 2, and 3 / HDAC6 selectivity over HDAC1, 2, and 3: from IC50 values; for isoform selectivity in single concentration screen (HDAC6 versus HDAC1, 2, 3): 1a-f at 0.75, 0.75, 2.5, 1.25, 2.5, and 5 μM, SAHA at 1 μM
# T1 sequence (Q9UBN7 1-1215): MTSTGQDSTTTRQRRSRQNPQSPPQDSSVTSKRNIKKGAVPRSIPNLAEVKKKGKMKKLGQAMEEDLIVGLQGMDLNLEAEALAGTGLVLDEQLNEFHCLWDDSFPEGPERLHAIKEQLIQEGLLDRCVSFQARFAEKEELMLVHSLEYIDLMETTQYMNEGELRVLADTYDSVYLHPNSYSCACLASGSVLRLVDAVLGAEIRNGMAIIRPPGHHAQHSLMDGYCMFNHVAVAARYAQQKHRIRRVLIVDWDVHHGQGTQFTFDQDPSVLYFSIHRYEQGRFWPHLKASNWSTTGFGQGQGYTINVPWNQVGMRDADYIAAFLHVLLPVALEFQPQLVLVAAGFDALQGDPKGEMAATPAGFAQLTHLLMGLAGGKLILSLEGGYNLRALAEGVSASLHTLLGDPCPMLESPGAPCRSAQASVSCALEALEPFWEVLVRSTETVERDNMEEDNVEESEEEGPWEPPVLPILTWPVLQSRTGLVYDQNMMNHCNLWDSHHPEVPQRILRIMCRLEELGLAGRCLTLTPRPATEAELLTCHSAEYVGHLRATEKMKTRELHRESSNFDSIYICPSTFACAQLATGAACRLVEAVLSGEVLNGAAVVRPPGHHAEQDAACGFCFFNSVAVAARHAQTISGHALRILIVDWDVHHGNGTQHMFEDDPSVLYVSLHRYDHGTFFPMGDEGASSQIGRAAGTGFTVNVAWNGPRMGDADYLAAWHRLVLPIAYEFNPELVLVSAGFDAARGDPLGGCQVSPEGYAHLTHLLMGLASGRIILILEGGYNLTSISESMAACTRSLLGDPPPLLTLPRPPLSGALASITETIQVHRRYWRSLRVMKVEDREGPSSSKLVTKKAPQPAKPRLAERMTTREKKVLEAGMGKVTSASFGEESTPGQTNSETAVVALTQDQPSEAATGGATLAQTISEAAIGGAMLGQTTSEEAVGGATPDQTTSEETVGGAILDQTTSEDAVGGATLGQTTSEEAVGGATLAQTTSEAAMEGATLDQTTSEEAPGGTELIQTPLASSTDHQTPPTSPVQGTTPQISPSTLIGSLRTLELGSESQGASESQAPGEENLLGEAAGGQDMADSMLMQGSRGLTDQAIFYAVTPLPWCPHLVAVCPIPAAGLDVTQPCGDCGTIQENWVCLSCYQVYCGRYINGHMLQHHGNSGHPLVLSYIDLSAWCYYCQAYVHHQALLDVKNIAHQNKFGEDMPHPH
# HDAC8 = conditions: read-out: IC50 with HDAC8; cited from earlier work
# HDAC6 [2] = conditions: cited from earlier work
# HeLa cell lysates = assay: Global HDAC inhibition with HeLa cell lysates; type: biochemical, human; conditions: HeLa cell lysates IC50 relative to SAHA
# acetyl-α-tubulin (AcTub) = assay: In cellulo selectivity testing, western blot of acetyl-α-tubulin in U937 cells; type: cell-based, human; conditions: SAHA 5 μM, 1f 20-60 μM, 18 hours
smiles,measurement,setting,value
"O=C(CC[C@@H](CCCC(=O)Nc1ccccc1)Cc1ccccc1)NO [(R)-1f, (R)-4-benzyl-N^1-hydroxy-N^8-phenyloctanediamide]","fold selectivity for HDAC6 and HDAC8 over HDAC1, 2, and 3",HDAC6 [1],520- to 1300 fold
"O=C(CC[C@H](CCCC(=O)Nc1ccccc1)Cc1ccccc1)NO [(S)-1f, (S)-4-benzyl-N^1-hydroxy-N^8-phenyloctanediamide]","fold selectivity for HDAC6 and HDAC8 over HDAC1, 2, and 3",HDAC6 [1],240- to 540 fold
O=C(CCCC(CCC(=O)Nc1ccccc1)Cc1ccccc1)NO (centres unmarked) [C5-benzyl SAHA],IC50,HDAC8,380 nM
same,HDAC6/8 selectivity,HDAC6 [2],8- to 21 fold
same,IC50,HDAC6 [2]; read-out: IC50 with HDAC6,270 nM
"CC(CCCC(=O)Nc1ccccc1)CCC(=O)NO (centres unmarked) [Compound 1a, N^1-hydroxy-4-methyl-N^8-phenyloctanediamide]",fold less potent compared to SAHA,HeLa cell lysates,18 fold
same,"isoform selectivity in single concentration screen (HDAC6 versus HDAC1, 2, 3)",HDAC6 [1],smallest difference in potency
"CCCCCCC(CCCC(=O)Nc1ccccc1)CCC(=O)NO (centres unmarked) [Compound 1d, 4-hexyl-N^1-hydroxy-N^8-phenyloctanediamide]","HDAC6 selectivity over HDAC1, 2, and 3",HDAC6 [1],at least 210 fold
same,"fold selectivity for HDAC6 and HDAC8 over HDAC1, 2, and 3",HDAC6 [1],170- to 480 fold and 210- to 480 fold
"O=C(CCC(CCCC(=O)Nc1ccccc1)Cc1ccccc1)NO (centres unmarked) [Compound 1f, 4-benzyl-N^1-hydroxy-N^8-phenyloctanediamide]",levels of acetyl-α-tubulin (HDAC6 substrate),acetyl-α-tubulin (AcTub),dose-dependent increase
same,"isoform selectivity in single concentration screen (HDAC6 versus HDAC1, 2, 3)",HDAC6 [1],greatest difference in potency
same,"HDAC6 selectivity over HDAC1, 2, and 3",HDAC6 [1],at least 210 fold
same,"fold selectivity for HDAC6 and HDAC8 over HDAC1, 2, and 3",HDAC6 [1],210- to 740 fold
CCCC(CCC)C(=O)NO [Valpropylhydroxamic acid],"selectivity for HDAC6 and 8 against HDAC1, 2, and 3",HDAC6 [2],9-17 fold
